Measured values from patent US9265764B2, “Uses of chemicals to modulate GSK-3 signaling for treatment of bipolar disorder and other brain disorders” (Massachusetts Institute of Technology, priority 2009, dated 2016).
Values belong to the compound of their own block, whether it stands above or below them.

Legend:
[1] = system: βCat-eGFP reporter in human U2OS cells; test: Cellular β-catenin stability assay (βCat-eGFP reporter); assay type: cell-based; conditions: for β-catenin accumulation: βCat-eGFP reporter assay
Protocol: Cellular-β-Catenin Stability Assay: To study effects of small molecules on GSK-3/β-catenin signaling in cells, we optimized an image-based assay that measures β-catenin stability. This assay uses human U2OS cells engineered to express a genetically encoded fluorescent reporter consisting of a fusion of β-catenin to enhanced green fluorescent protein (eGFP) that were obtained from Thermo Fisher Scientific (Denmark). […] Lithium treatments at 10 mM and valproic acid at 10 mM also have the same effect in this assay. […] Cells were imaged on an ImageXpress Micro (Molecular Devices) automated microscope at 10× magnification with detection of both DNA and eGFP fluorescence. The percentage of eGFP positive cells was calculated and compared to an untreated control.

[2] = system: amphetamine-induced hyperactivity in C57BL/6J mice; test: Amphetamine-induced hyperactivity (AIH) in C57BL/6J mice; assay type: in vivo
human GSK-3β = target: T1, human GSK-3β (Homo sapiens, UniProt P49841); test: in vitro GSK-3β kinase assay (Kinase-Glo luminescence); assay type: biochemical; conditions: FIG. 9 dose response, n=4
T1 construct: Recombinant full-length human GSK-3β (NM_002093) with an N-terminal GST tag; GST (N); purchased BPS Biosciences 40007; host or cells: Sf9 insect cells (baculovirus)

panel of 358 kinases = test: KINOMEscan active-site dependent competition binding assay; conditions: 10 μM
[3] = system: TCF/LEF reporter in HEK293 cells; test: TCF/LEF reporter assay with lithium; assay type: cell-based; conditions: FIG. 12
[4] = system: amphetamine-induced hyperactivity in DBA/2J mice; test: Lithium-nonresponsive AIH in DBA/2J mice; assay type: in vivo; conditions: for effect on AIH: DBA/2J
[5] = Serum level after systemic administration
[6] = system: dopamine transporter (DAT) knockout mice; conditions: 10 mg/kg; i.p.; cited from earlier work
[7] = ICV 1 μl of 0.1, 1.4, 14 μg/μl, FIGS. 16-18
[8] = intra-striatal infusion, 1 μl of 1.4 μg/μl, FIG. 22

T1 sequence (P49841 1-433 isoform P49841-2): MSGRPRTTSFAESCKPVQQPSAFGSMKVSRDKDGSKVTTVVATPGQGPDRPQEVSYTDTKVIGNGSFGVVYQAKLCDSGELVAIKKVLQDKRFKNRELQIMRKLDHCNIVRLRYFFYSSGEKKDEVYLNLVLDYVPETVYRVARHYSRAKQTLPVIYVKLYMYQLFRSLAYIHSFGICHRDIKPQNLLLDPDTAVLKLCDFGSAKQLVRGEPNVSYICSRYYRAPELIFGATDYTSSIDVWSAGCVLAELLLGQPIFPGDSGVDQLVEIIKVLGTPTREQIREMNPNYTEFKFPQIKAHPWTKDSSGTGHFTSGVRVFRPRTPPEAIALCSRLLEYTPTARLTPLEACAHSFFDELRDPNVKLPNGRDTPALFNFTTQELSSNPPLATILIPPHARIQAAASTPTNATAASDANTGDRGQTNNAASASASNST

Structure (SMILES): COc1ccc(CNC(=O)Nc2ncc([N+](=O)[O-])s2)cc1 [AR-A014418]
eGFP fluorescence and accumulation of βCat-eGFP reporter ([1]; 20 μM over 20 hrs): dose dependent increase in eGFP fluorescence
effect on AIH ([2]; 9 mg/kg i.p., FIG. 19): None of these GSK-3 inhibitors showed a significant effect on hyperactivity

IC50 (human GSK-3β): ~6.9 nM
Structure (SMILES): CN(C)CCCn1cc(C2=C(c3c[nH]c4ccccc34)C(=O)NC2=O)c2ccccc21 [BIM-I, bisindoylmaleimide I]

Number of Binding Targets (kinases) (panel of 358 kinases): 10
maximum serum level ([5]; 3.125 mg/kg systemic, extrapolated): 3 to 4 µM
maximum serum level ([5]; 3.125 mg/kg systemic, extrapolated, listed as compound of formula 7): about 4 μM
maximum serum level ([5]; 12.5 mg/kg systemic): about 15 μM
maximum serum level ([5]; 50 mg/kg systemic): about 69 μM
Structure (SMILES): Cc1c[nH]c(-c2cnc(NCCNc3ccc(C#N)cn3)nc2-c2ccc(Cl)cc2Cl)n1 [CHIR-99021]
TCF/LEF reporter signal: effect of addition of lithium ([3]; high concentration of Chir99021): synergistic effect
TCF/LEF reporter signal: effect of addition of lithium ([3]; lower concentrations of Chir99021): only an additive effect
effect on AIH ([2]; 6.25 mg/kg single dose i.p., FIG. 24): non-effective dose
effect on AIH ([2]; 12.5 mg/kg single dose i.p., FIG. 24): significantly decreased amphetamine-induced hyperactivity
effect on AIH ([2]; 25 mg/kg single dose i.p., FIG. 24): significantly decreased amphetamine-induced hyperactivity
effect on AIH [2, 7]: effective in attenuating AIH to levels comparable to those observed after lithium administration
effect on AIH [2, 8]: almost complete ablation of the amphetamine-induced hyperactivity
lowest dose that attenuated AIH ([2]; systemic (i.p.), C57BL/6J mice): 12.5 mg/kg
effect on AIH ([4]; 50 mg/kg i.p., FIG. 26): significant attenuation of AIH
effect on AIH ([4]; ICV 0.14 μg (1 μl infusion), FIG. 28): significantly attenuated AIH
effect on AIH ([4]; ICV 1.4 μg (1 μl infusion), FIG. 28): significantly attenuated AIH
lowest dose that attenuated AIH ([4]; systemic (i.p.), DBA/2J mice, FIG. 27): 0.78 mg/kg

Structure (SMILES): Cn1cc(C2=C(c3ccc(Cl)cc3Cl)C(=O)NC2=O)c2ccccc21 [SB-216763]
Number of Binding Targets (kinases) (panel of 358 kinases): 31
effect on AIH ([2]; 5, 10, 20 mg/kg i.p.): None of these GSK-3 inhibitors showed a significant effect on hyperactivity
effect on AIH ([2]; ICV in DMSO vehicle): None of these GSK-3 inhibitors showed a significant effect on hyperactivity
hyperactivity in DAT knockout mice [6]: attenuates hyperactivity

Number of Binding Targets (kinases) (panel of 358 kinases): 75
Structure (SMILES): Cn1cc(C2=C(c3cn(C4CCN(Cc5ccccn5)CC4)c4ccccc34)C(=O)NC2=O)c2ccccc21 [enzastaurin]
β-catenin accumulation [1]: able to cause β-catenin accumulation
effect on AIH [2, 7]: no effect in AIH
effect on AIH [2, 8]: modestly effective

Number of Binding Targets (kinases) (panel of 358 kinases): 95
Structure (SMILES): CN(C)C[C@@H]1CCn2cc(c3ccccc32)C2=C(C(=O)NC2=O)c2cn(c3ccccc23)CCO1 [ruboxistaurin]
β-catenin accumulation [1]: able to cause β-catenin accumulation
effect on AIH [2, 7]: moderate attenuating effect

Structure (SMILES): CCCC(CCC)C(=O)O [valproic acid]
eGFP fluorescence and accumulation of βCat-eGFP reporter ([1]; 10 mM): same effect
